These results are taken from patent US20030050302A1, “Treatment of conditions associated with amyloid processing using PKC activators” (Neurologic, Inc., priority 2000, published 2003).

Assay [1] concerns sAPP. Put plainly: sAPP secretion in AD fibroblasts (immunoblot densitometry). For orientation: A western blot detects proteins with antibodies after separation by electrophoresis.
Experimental: (§2) Human fibroblasts were obtained from the Coriell Cell Repositories (Camden N.J.). […] The culture medium was DMEM supplemented with 10% serum (FBS, Gibeo). PC12 cells were obtained from the American Cell Culture Collection and grown to confluence in T75 flasks containing DMEM supplemented with 5% FPS (Gibeo), 10% horse serum (Biofluids) and 1% of a mixture of penicillin (5000 units/ml in G sodium) and streptomycin (5000 μg/ml).
(§3) Complete culture medium was removed just prior to experiments.
(§4) After two hours of incubation, the supernatant was removed and the secreted proteins were precipitated with 10% TCA and resuspended in Tris-glycine SDS electrophoresis sample buffer (Novex). The samples were boiled for 5 min, subjected to electrophoresis and later to immunoblotting for identification of sAPP.
(§5) Conventional immunoblotting techniques were employed. […] The volume of sample loaded was corrected for total cell protein per flask. Proteins were transferred electrophoretically to nitrocellulose membranes. The membranes were saturated with Blotto blocker (Pierce) and incubated overnight at 4° C. with 1:500 6E10 monoclonal antibody from Senetek. After washing, the membranes were incubated for 1 h at room temperature with the secondary antibody, alkaline phosphatase anti-mouse. IfG (Vector Laboratories) and developed using a BCIP/NBT subtrate kit (Vector Laboratories). The bands were quantitated by densitometric analyses (NIH Image, version 1.6) after obtaining a digital image of each membrane.
The subject of assay [2] is sAPP. In words: sAPP secretion in age-matched control fibroblasts (immunoblot densitometry).
Experimental: as §2, §3, §4, §5
Assay [3] has as its system sAPP. In words: sAPP secretion in PC12 cells (immunoblot densitometry). To be noted: for sAPP secretion vs basal level: 10 μM.
Experimental: as §2, §3, §4, §5
In assay [4] the test system is fibroblasts from AD patients. Put plainly: TEA-induced [Ca2+] elevation (calcium imaging) in AD fibroblasts.
Experimental: (§6) The culture medium in which cells were grown was Dulbecco's modified Eagle's medium (GIBCO) supplemented with 10% fetal calf serum (Biofluids, Inc.).
(§7) Round, 25-mm glass coverslips were flame-polished and placed inside 35-mm Nunc petri dishes. Cells were seeded (ca. 10-15 cells/mm^2) in these petri dishes and used when cell density was equivalent for all cell lines (ca 180 cells/mm^2). […] Briefly, culture medium was removed and cells were washed at least three times with basal salt solution (BSS; in mM: NaCl 140, KCl 5, CaCl2 2.5, MgCl2 1.5, Hepes 10, glucose 5, pH 7.4). The fluorescent probe was loaded by incubating cells in 1 μM fura 2-AM (Molecular Probes) in 1 ml BSS at room temperature (RT). One hour later, cells were washed thoroughly with BSS and 1 ml of fresh BSS was added for [Ca^2+] baseline measurements. […] A 40× Zeiss Fluor (oil immersion) objective lens was used.
A group of cells was treated with the PKC activator benzolactam prior to the TEA challenge. BL was dissolved in dimethyl sulfoxide (DMSO; Sigma) to achieve a final testing concentration of 50 nM when 1 ml of the dissolved BL was added to the dish 1 minute prior to TEA application. […] Seven to ten petri dishes of cells were tested from each cell line for each experimental condition. In almost all the cell lines, a minimum of 100 cells were tested per treatment per cell line (total 9231 cells). There were only three AC cell lines for which the number of cells in a couple of treatment groups was above 65 but below 100. Experiments for each cell line were repeated on at least one separate occasion (minimum 1-week interval). Response in a given cell was characterized as a double-fold increase in baseline [Ca^2+]
Assay [5] concerns 113 pS TEA-sensitive K+ channel. In words: Patch-clamp single-channel recording in AD cell line AG06848. The assay is classed as cell-based, human. The protocol:
Patch-claim experiments were performed on 13 separate replicate representative experiments in a well-characterized AD cell line (AG06848) which is normally silent for the 113 pS TEA-sensitive K^+ channel (Etcheberrigaray et al., 1993). The experiment was performed at room temperature (21-23° C.) following standard procedures (Sakmann & Neher, 1983). The culture medium was replaced with the following solution (mM, NaCl 150, KCl 5, CaCl2 2, MgCl2 1, Hepes (NaOH) 10, pH 7.4, prior to recording. Benzolactam was added to a dish after ensuring that the patch is silent for the II 3 pS K^+ channel. The recording electrodes, filled with a high-K^+ solution (mM), KCl 140, CaCl2 2, MgCl2 1, Hepes (NaOH) 10, pH 7.4, were made from Blu Tip capillary tubes (i.d. 1.1-1.2 mm; Oxford Labware) by using a BB-CH-PC Mecanex puller to obtain pipette resistances that were ˜6 MΩ. An Axopath-IC amplifier was used to obtain records and a JVC Vetter PCM videorecorder was used to store the data on tape. The data were acquired and analyzed on a personal computer with a pClamp suite of programs by transferring the information via an Axolab interface from the amplifier. All three components-amplifier, interface, and software-were obtained from Axon Instruments (Foster City, Calif.).

In the next assay the target is PKC δ (Homo sapiens, UniProt Q05655). To be noted: δ isoform vs α; cited from earlier work.
A further assay has as its target T1, PKC ε (Homo sapiens, UniProt Q02156).
T1 sequence (Q02156 1-737): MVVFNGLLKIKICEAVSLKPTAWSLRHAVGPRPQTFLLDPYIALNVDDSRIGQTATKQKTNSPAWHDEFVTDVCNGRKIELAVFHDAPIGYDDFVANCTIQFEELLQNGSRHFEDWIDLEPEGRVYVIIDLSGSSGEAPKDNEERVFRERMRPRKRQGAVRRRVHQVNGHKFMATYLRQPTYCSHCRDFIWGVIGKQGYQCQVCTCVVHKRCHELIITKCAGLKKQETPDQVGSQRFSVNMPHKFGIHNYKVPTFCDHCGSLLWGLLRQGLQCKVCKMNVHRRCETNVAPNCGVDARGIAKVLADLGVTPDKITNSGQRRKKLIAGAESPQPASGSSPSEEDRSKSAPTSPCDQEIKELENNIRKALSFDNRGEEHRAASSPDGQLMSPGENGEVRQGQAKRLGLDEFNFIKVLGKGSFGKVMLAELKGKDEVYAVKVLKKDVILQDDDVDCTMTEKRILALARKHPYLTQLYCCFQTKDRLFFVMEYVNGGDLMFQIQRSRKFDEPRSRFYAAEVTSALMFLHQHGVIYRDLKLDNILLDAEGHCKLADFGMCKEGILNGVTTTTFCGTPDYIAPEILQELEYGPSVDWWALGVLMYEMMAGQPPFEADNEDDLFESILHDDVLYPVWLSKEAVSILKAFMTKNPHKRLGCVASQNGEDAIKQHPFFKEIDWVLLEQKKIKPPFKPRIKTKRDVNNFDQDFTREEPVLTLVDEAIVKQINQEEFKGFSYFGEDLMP
To be noted: ε isoform vs α; cited from earlier work.

For assay [6] the following is noted: rats, personal communication; cited from earlier work.
Assay [7] deals with T2, PKC α isoform (Homo sapiens, UniProt P17252). In words: Immunoblot of PKC α translocation cytosol to membrane in AC cell lines. The assay is classed as cell-based. To be noted: AC cells, 50 nM. Also noted: endogenous in cells; host or cells: human skin fibroblast lines from AC controls. The protocol: (§1) Cells were grown to confluency (˜90%) in t-75 flasks. […] Fibroblasts were washed twice with ice-cold PBS, scraped in PBS, and collected by low-speed centrifugation. The pellets were resuspended in the following homogenization buffer: 20 mM Tris-HCl, pH 7.5, 2 mM EDTA, 2 mM EGTA, 5 mM DTT, 0.32 M sucrose, 2 mM PMSF, 25 μg/ml leupeptin. Homogenates were immersed in liquid nitrogen, thawed, and centrifuged at 12,000 g for 20 minutes, and the supernatants were used as the cytosolic fraction. The pellets were homogenized in the same buffer containing 1.0% Triton X-100, incubated in ice for 45 minutes, and centrifuged at 12,000 g for 30 minutes. The supernatant from this batch was used as the membranous fraction. […] The membrane was saturated with Blotto blocker (Pierce) by incubating it at RT for an hour. The primary antibody for PKC α isoform (Transduction Laboratories) was diluted (1:1000) in blocking solution and incubated with the membrane for 1 hour at RT. After incubation with the secondary antibody, alkaline phosphatasae antimouse IgG (Vector Laboratories), the membrane was developed using an alkaline phosphatase kit (Vector Laboratories) as per the manufacturer's instructions. The conditions for developing the membranes were kept as similar as possible. […]

The subject of assay [8] is age-matched control (AC) fibroblasts. In words: TEA-induced [Ca2+] elevation (calcium imaging) in age-matched control (AC) fibroblasts. To be noted: 50 nM, 1 minute.
Experimental: as §6, §7
A group of cells was treated with the PKC activator benzolactam prior to the TEA challenge. BL was dissolved in dimethyl sulfoxide (DMSO; Sigma) to achieve a final testing concentration of 50 nM when 1 ml of the dissolved BL was added to the dish 1 minute prior to TEA application. […] Seven to ten petri dishes of cells were tested from each cell line for each experimental condition. In almost all the cell lines, a minimum of 100 cells were tested per treatment per cell line (total 9231 cells). […]
Assay [9] has as its target T2, PKC α isoform. In words: Immunoblot of PKC α translocation cytosol to membrane in AD cell lines. The class given is cell-based. More on the design: endogenous in cells; host or cells: human skin fibroblast lines from AD patients and AC controls. To be noted: 50 nM. Here is the method:
as §1

PKC δ, sequence (Q05655 whole entry, canonical isoform): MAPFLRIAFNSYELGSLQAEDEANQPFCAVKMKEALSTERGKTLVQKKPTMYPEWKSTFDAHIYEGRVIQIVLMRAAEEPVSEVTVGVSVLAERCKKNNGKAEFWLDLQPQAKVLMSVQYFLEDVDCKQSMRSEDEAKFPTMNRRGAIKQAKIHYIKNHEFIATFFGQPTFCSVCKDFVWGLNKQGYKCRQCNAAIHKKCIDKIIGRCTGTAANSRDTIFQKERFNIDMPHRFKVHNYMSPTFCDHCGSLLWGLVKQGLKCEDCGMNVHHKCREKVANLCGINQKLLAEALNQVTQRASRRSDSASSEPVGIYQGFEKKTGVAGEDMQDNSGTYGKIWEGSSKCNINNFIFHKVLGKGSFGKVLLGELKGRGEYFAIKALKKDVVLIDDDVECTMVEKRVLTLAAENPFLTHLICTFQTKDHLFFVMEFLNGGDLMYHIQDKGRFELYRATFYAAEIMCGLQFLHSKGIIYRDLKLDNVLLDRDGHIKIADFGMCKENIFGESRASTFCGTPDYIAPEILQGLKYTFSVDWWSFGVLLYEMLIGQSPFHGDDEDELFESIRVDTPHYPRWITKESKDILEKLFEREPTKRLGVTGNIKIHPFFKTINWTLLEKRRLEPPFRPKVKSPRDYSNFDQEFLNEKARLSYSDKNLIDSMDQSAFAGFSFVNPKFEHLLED

As for `CN[C@@H]1C[C@H]2O[C@@](C)([C@@H]1OC)n1c3ccccc3c3c4c(c5c6ccccc6n2c5c31)C(=O)NC4` [staurosporine], the “effect on BL-induced sAPP secretion” value with sAPP [1] (AD cell lines, 0.5 μM staurosporine 30 min prior to BL) is given as “completely prevented”. In the assay with sAPP [1] (staurosporine pretreatment, data not shown), the “effect on phorbol (PDBu)-induced sAPP secretion” value is on record as “significantly reduced”. Moreover, in the assay on sAPP [2] (age-matched control cell lines), the “sAPP secretion, staurosporine alone” value is on record as “without effect”. In addition, in the assay on sAPP [2] (age-matched control cell lines, 0.5 μM staurosporine pretreatment), the “effect on increase in sAPP secretion caused by 10 μM BL” value was “effective in preventing”.
With `CCCCCCCCCCCC(=O)Oc1ccc([C@H]2[C@@H](C(C)C)C(=O)N[C@@H]2CO)c2ccccc12` [LQ12], in the assay with sAPP [3], the “sAPP secretion vs basal level” value is given as “significantly increased”.
In the case of `CCCC(=O)O[C@@H]1[C@@H](C)[C@@]2(O)[C@@H](C=C(CO)C[C@]3(O)C(=O)C(C)=C[C@@H]23)[C@@H]2C(C)(C)[C@]12OC(=O)CCC` [PDBu, phorbol 12,13-dibutyrate], the “sAPP secretion vs basal” value in the assay on sAPP [1] (AD cell lines, 0.5 μM, 2 h) was “maximal at 500 nM”; with sAPP [1] (AD cell lines, 0.5, 1 and 10 μM, 2 h), “statistically significant increases”; with sAPP [2] (age-matched control cell lines, 0.5, 1 and 10 μM) it was “statistical significance was not reached”. In [4] (AD cells, 50 nM, 45 minutes), the “TEA response vs 4α-PHR-treated cells” value was “did not differ”. The “TEA response, shorter incubation times” value in [4] (AD cells, 1 and 15 minutes incubation) is listed as “without effect”.
As to `CCCCCCCCC#Cc1ccc2c(c1)C[C@@H](CO)NC(=O)[C@H](C(C)C)N2C` [BL, (2S, 5S)-8-(1′-decynyl)benzolactam], in [5] (AD cell line AG06848, 1 minute BL treatment), the “K+ channel activity after BL activation” value stood at 54%. The “cells showing unambiguous 113 pS K+ channel” value in assay [5] (of 13 recordings silent before BL, 1 minute BL treatment) was 7. Further, the “affinity lower than for PKC α” value at PKC δ and on PKC ε was “at least 10 fold” each time. In assay [6], the antitumoral activity entry is “shows antitumoral activity”. The molecule also returned a sAPP secretion with sAPP [3] of approximately 3 fold. For the same molecule, the “sAPP secretion vs basal level” value with sAPP [3] is “significantly increased”. In addition, in the assay with sAPP [1] (AD cell lines, 0.5 μM, 2 h), the “sAPP secretion vs basal” value is “did not reach statistical significance”. Besides, the “sAPP secretion vs basal, post test significance” value in the assay on sAPP [1] (AD cell lines, 1 μM, 2 h) was “significance level of p<0.001”. Further, in the assay on sAPP [1] (AD cell lines, 10 μM, 2 h), the “sAPP secretion over basal” value is “almost three-fold increase”. For the same molecule, the “percentage of cells responding to TEA vs untreated and DMSO-treated controls” value in assay [4] (AD cell lines, 50 nM, 1 minute) is on record as “significantly increased”. The “percentage of cells responding to TEA” value in assay [4] (AD cells treated with BL (50 nM, 1 minute) before 100 mM TEA) is reported as 19.58%. In addition, the “PKC translocation vs basal levels” value at PKC α isoform [7] (1 minute) is “ns”. The “PKC α particulate/soluble ratio” value is listed as 1.72 on PKC α isoform [7] (15 minutes) and 1.156 on PKC α isoform [9] (15 minutes). Also, the “percentage of response to TEA vs untreated or DMSO-treated cells” value in [8] was “did not differ”. On PKC α isoform [9] (1 minute), the “redistribution of PKC α from cytosol to membrane vs basal ratio” value is on record as “pronounced redistribution”.
